Data from patent US11168073B2, “3,3-difluoroallylamines or salts thereof and pharmaceutical compositions comprising the same” (YUHAN CORPORATION, priority 2018, dated 2021).
Structures can show the parent of a compound that is named as a salt.

Experiments:
Assay type in all cases: biochemical
[1] = target: T1, recombinant human VAP-1 (Homo sapiens, UniProt Q16853); assay: Activity evaluation on recombinant human VAP-1 (Amplex Red/HRP-coupled hydrogen peroxide assay, benzylamine substrate); conditions: recombinant human VAP-1; 30 min preincubation at 37° C.; 1 mM benzylamine; read-out: Inhibitory Activity (IC50, nM) human VAP-1
T1 construct: purchased R&D systems
T1 sequence (Q16853 1-763): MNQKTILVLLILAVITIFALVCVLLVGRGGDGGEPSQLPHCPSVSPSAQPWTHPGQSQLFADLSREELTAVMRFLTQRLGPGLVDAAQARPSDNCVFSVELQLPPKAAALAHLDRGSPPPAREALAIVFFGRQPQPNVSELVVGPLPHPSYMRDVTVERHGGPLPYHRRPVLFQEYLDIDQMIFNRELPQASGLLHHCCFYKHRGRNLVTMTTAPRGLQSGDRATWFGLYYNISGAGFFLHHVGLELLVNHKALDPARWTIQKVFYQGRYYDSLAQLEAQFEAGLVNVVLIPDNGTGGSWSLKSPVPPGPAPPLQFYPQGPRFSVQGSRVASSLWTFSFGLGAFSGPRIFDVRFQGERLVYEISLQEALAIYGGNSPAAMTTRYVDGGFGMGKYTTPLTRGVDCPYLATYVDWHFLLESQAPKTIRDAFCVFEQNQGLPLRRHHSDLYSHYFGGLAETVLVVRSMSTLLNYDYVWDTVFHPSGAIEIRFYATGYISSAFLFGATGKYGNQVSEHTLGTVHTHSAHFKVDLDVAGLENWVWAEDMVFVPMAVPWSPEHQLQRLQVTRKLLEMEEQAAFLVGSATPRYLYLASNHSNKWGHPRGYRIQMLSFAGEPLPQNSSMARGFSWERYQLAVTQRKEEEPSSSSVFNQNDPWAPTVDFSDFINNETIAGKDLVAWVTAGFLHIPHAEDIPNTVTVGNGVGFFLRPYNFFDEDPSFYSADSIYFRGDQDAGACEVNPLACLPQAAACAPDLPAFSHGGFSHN
Procedure, shortened: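 Hydrogen peroxide from benzylamine (1 mM) oxidation by human recombinant VAP-1 detected via HRP-coupled Amplex Red (200 uM) fluorescence, kinetic over 1–2 h. Enzyme and compound preincubated 30 min at 37 °C, pH 7.4 phosphate; 8-point dose response, signal-rate decrease versus DMSO control fitted to four-parameter logistic for IC50.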

[2] = target: T2, recombinant human MAO-A (monoamine oxidase-A) (Homo sapiens, UniProt P21397); assay: Activity evaluation on recombinant human MAO-A (Amplex Red/HRP-coupled assay, 0.5 mM tyramine substrate); conditions: 0.5 mM tyramine, read-out: Inhibitory Activity (IC50, nM) MAO-A
T2 construct: purchased Sigma-Aldrich
T2 sequence (P21397 1-527): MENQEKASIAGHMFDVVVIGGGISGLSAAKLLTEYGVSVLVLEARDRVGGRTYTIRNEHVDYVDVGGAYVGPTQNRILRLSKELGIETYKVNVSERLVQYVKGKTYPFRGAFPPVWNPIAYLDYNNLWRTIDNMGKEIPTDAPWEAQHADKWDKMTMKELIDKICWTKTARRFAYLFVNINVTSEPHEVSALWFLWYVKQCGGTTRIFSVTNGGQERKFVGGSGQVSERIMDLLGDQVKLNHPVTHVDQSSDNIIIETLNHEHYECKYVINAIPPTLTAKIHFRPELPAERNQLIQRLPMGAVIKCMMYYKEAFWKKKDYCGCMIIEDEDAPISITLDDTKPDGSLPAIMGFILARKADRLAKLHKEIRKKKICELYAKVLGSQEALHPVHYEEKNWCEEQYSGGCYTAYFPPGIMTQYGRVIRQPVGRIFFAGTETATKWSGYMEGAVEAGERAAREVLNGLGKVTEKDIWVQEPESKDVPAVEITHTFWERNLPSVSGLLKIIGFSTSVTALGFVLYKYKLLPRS
Procedure, shortened: (§1)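 8-pt 1:3 dilution series, final DMSO <1%; 30 min 37 °C preincubation w/ enzyme, 50 mM Na phosphate pH 7.4; + 200 uM Amplex Red, 1 U/mL HRP, substrate (MAO-A tyramine 0.5 mM; MAO-B benzylamine 1 mM; DAO putrescine 1 mM); fluor. rate 544/590 nm, 1-2 h; 4-param IC50.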

[3] = target: T3, recombinant human MAO-B (monoamine oxidase-B) (Homo sapiens, UniProt P27338); assay: Activity evaluation on recombinant human MAO-B (Amplex Red/HRP-coupled assay, 1 mM benzylamine substrate); conditions: 1 mM benzylamine, read-out: Inhibitory Activity (IC50, nM) MAO-B
T3 construct: purchased Sigma-Aldrich
T3 sequence (P27338 1-520): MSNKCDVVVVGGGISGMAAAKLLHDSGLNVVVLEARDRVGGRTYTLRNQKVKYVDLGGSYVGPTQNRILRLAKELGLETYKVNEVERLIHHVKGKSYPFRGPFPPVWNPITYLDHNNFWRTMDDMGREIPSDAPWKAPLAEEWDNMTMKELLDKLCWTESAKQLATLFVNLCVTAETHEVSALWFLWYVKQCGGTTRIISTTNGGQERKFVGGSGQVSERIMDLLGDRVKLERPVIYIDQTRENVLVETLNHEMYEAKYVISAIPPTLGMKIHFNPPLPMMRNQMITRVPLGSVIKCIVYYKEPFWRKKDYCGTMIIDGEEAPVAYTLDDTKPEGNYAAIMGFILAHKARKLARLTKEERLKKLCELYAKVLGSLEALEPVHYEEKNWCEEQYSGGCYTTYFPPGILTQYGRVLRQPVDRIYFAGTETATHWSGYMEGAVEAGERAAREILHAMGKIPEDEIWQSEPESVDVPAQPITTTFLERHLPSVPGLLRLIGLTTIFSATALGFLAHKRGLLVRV
Procedure, shortened: as §1

[4] = target: T4, recombinant human DAO (diamine oxidase) (Homo sapiens, UniProt P19801); assay: Activity evaluation on recombinant human DAO (Amplex Red/HRP-coupled assay, 1 mM putrescine substrate); conditions: 1 mM putrescine, read-out: Inhibitory Activity (IC50, nM) DAO
T4 construct: purchased R&D systems
T4 sequence (P19801 20-751): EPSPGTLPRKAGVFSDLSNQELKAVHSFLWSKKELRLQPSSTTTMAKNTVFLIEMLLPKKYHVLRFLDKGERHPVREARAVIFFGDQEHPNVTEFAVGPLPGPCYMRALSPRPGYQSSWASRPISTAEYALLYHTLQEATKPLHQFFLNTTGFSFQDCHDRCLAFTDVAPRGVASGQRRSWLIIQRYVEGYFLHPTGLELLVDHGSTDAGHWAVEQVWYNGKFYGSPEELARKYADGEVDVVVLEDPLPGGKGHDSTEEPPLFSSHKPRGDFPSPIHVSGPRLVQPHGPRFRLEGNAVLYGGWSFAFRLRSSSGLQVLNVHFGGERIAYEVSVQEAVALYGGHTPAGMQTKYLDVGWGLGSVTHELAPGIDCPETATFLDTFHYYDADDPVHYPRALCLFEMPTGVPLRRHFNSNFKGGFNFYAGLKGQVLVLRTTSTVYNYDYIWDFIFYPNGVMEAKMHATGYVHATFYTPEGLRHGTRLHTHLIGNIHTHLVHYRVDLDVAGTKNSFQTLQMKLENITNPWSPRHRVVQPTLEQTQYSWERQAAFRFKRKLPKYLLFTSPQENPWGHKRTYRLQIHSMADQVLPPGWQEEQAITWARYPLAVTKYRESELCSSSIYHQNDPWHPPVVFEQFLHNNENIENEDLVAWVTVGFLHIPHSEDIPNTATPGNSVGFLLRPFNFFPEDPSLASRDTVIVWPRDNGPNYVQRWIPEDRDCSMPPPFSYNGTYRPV
Procedure, shortened: as §1

Row | Structure (SMILES) | IC50 [1] [nM] | IC50 [2] [nM] | IC50 [3] [nM] | IC50 [4] [nM]
1 | CCn1cc(-c2cnc(-n3cnn(CC(CN)=C(F)F)c3=O)c(C)c2)cn1 [Example 75, 2-[2-(aminomethyl)-3,3-difluoro-allyl]-4-[5-(1-ethylpyrazol-4-yl)-3-methyl-2-pyridyl]-1,2,4-triazol-3-one Trifluoroacetate] | 0.7 | > 100000 | > 100000 | 20000
2 | Cc1cc(-n2cnn(CC(CN)=C(F)F)c2=O)cnc1-c1ccc(S(C)(=O)=O)cc1 [Example 76, 2-[2-(aminomethyl)-3,3-difluoro-allyl]-4-[5-methyl-6-(4-methylsulfonylphenyl)-3-pyridyl]-1,2,4-triazol-3-one Trifluoroacetate] | 1.1 | > 100000 | 44000 | 32
3 | Cc1cc(-n2cnn(CC(CN)=C(F)F)c2=O)cnc1-c1ccc(C(F)(F)F)nc1 [Example 77, 2-[2-(aminomethyl)-3,3-difluoro-allyl]-4-[5-methyl-6-[6-(trifluoromethyl)-3-pyridyl]-3-pyridyl]-1,2,4-triazol-3-one Trifluoroacetate] | 1 | > 100000 | 1600 | 10
4 | Cc1cc(-n2cnn(CC(CN)=C(F)F)c2=O)cnc1-c1ccc(N(C)C)nc1 [Example 78, 2-[2-(aminomethyl)-3,3-difluoro-allyl]-4-[6-[6-(dimethylamino)-3-pyridyl]-5-methyl-3-pyridyl]-1,2,4-triazol-3-one Trifluoroacetate] | 0.6 | > 100000 | 9800 | 57
5 | Cc1cc(-n2cnn(CC(CN)=C(F)F)c2=O)cnc1-c1ccc2c(c1)OCO2 [Example 79, 2-[2-(aminomethyl)-3,3-difluoro-allyl]-4-[6-(1,3-benzodioxol-5-yl)-5-methyl-3-pyridyl]-1,2,4-triazol-3-one Trifluoroacetate] | 0.9 | > 100000 | 910 | 200
6 | Cc1cc(-n2cnn(CC(CN)=C(F)F)c2=O)cnc1-c1cc(C)c2c(c1)CCC(=O)N2 [Example 80, 6-[5-[1-[2-(aminomethyl)-3,3-difluoro-allyl]-5-oxo-1,2,4-triazol-4-yl]-3-methyl-2-pyridyl]-8-methyl-3,4-dihydro-1H-quinolin-2-one Trifluoroacetate] | 0.4 | > 100000 | 5300 | 36
7 | Cc1cc(-n2cnn(CC(CN)=C(F)F)c2=O)cnc1-c1ccc2c(c1)CCC(=O)N2C [Example 81, 6-[5-[1-[2-(aminomethyl)-3,3-difluoro-allyl]-5-oxo-1,2,4-triazol-4-yl]-3-methyl-2-pyridyl]-1-methyl-3,4-dihydroquinolin-2-one Trifluoroacetate] | 0.4 | > 100000 | 3500 | 27
8 | CS(=O)(=O)c1ccc(-c2cnc(-n3cnn(CC(CN)=C(F)F)c3=O)c(F)c2)cc1 [Example 82, 2-[2-(aminomethyl)-3,3-difluoro-allyl]-4-[3-fluoro-5-(4-methylsulfonylphenyl)-2-pyridyl]-1,2,4-triazol-3-one Trifluoroacetate] | 0.1 | > 100000 | 3700 | 13
9 | NCC(Cn1ncn(-c2ncc(-c3ccc(N4CCNCC4)cc3)cc2F)c1=O)=C(F)F [Example 83, 2-[2-(aminomethyl)-3,3-difluoro-allyl]-4-[3-fluoro-5-(4-piperazin-1-ylphenyl)-2-pyridyl]-1,2,4-triazol-3-one Ditrifluoroacetate] | 0.4 | > 100000 | > 10000 | 250
10 | NCC(Cn1ncn(-c2ncc(-c3ccc(C(F)(F)F)nc3)cc2F)c1=O)=C(F)F [Example 84, 2-[2-(aminomethyl)-3,3-difluoro-allyl]-4-[3-fluoro-5-[6-(trifluoromethyl)-3-pyridyl]-2-pyridyl]-1,2,4-triazol-3-one Trifluoroacetate] | 0.2 | > 100000 | 900 | 7
11 | NCC(Cn1ncn(-c2ncc(-c3ccc4c(c3)OCO4)cc2F)c1=O)=C(F)F [Example 85, 2-[2-(aminomethyl)-3,3-difluoro-allyl]-4-[5-(1,3-benzodioxol-5-yl)-3-fluoro-2-pyridyl]-1,2,4-triazol-3-one Trifluoroacetate] | 0.2 | > 100000 | 130 | 180
12 | Cc1cc(-c2cnc(-n3cnn(CC(CN)=C(F)F)c3=O)c(F)c2)cc2c1NC(=O)CC2 [Example 86, 6-[6-[1-[2-(aminomethyl)-3,3-difluoro-allyl]-5-oxo-1,2,4-triazol-4-yl]-5-fluoro-3-pyridyl]-8-methyl-3,4-dihydro-1H-quinolin-2-one Trifluoroacetate] | 0.1 | > 100000 | 640 | 33
13 | CN1C(=O)CCc2cc(-c3cnc(-n4cnn(CC(CN)=C(F)F)c4=O)c(F)c3)ccc21 [Example 87, 6-[6-[1-[2-(aminomethyl)-3,3-difluoro-allyl]-5-oxo-1,2,4-triazol-4-yl]-5-fluoro-3-pyridyl]-1-methyl-3,4-dihydroquinolin-2-one Trifluoroacetate] | 0.1 | > 100000 | 1100 | 22
